Measured values from ChEMBL document CHEMBL4043136, “Chiral-pool synthesis of 1,2,4-trisubstituted 1,4-diazepanes as novel σ1 receptor ligands” (Bioorg Med Chem, 2017).
Calls of active or inactive are those of the source. The calls are words filed in the database; no cut-off is given here.

What was measured:
[1] = molecular target: T1, Sigma intracellular receptor 2 (Rattus norvegicus, UniProt Q5U3Y7); assay: Displacement of [3H]-DTG from sigma2 receptor in rat liver membranes after 120 mins by liquid scintillation counting; format: cell membranes, Membrane
T1 sequence (Q5U3Y7 whole entry): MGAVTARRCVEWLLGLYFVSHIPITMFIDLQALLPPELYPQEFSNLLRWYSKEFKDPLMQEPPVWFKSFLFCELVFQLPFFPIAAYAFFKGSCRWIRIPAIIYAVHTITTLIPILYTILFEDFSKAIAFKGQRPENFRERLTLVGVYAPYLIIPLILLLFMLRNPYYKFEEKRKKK

[2] = Displacement of [3H]-(+)-MK 801 from PCP binding site of NMDA receptor in pig brain cortex membranes after 120 mins by liquid scintillation spectrometry; format: cell membranes, Sus scrofa
[3] = molecular target: Sigma non-opioid intracellular receptor 1 (Cavia porcellus, UniProt Q60492); assay: Displacement of [3H]-pentazocine from sigma1 receptor in guinea pig brain membranes after 120 mins by liquid scintillation counting; format: cell membranes, Membrane
[4] = molecular target: C-8 sterol isomerase ERG2 (Saccharomyces cerevisiae S288c) (UniProt P32352); assay: Inhibition of yeast sterol-delta8/7-isomerase assessed as accumulation of cholesta-8,14-dien-3beta-ol at 50 uM
[5] = molecular target: C-8 sterol isomerase ERG2 (Saccharomyces cerevisiae S288c) (UniProt P32352); assay: Inhibition of yeast sterol-delta8/7-isomerase assessed as accumulation of cholesta-7-en-3beta-ol at 1 uM
[6] = molecular target: C-8 sterol isomerase ERG2 (Saccharomyces cerevisiae S288c) (UniProt P32352); assay: Inhibition of yeast sterol-delta8/7-isomerase assessed as accumulation of cholesta-7-en-3beta-ol at 50 uM
[7] = molecular target: C-8 sterol isomerase ERG2 (Saccharomyces cerevisiae S288c) (UniProt P32352); assay: Inhibition of yeast sterol-delta8/7-isomerase assessed as accumulation of cholesta-5,7-dien-3beta-ol at 1 uM
[8] = molecular target: C-8 sterol isomerase ERG2 (Saccharomyces cerevisiae S288c) (UniProt P32352); assay: Inhibition of yeast sterol-delta8/7-isomerase assessed as accumulation of cholesta-8-en-3beta-ol at 1 uM
[9] = molecular target: C-8 sterol isomerase ERG2 (Saccharomyces cerevisiae S288c) (UniProt P32352); assay: Inhibition of yeast sterol-delta8/7-isomerase assessed as accumulation of cholesta-8,14-dien-3beta-ol at 1 uM
[10] = molecular target: C-8 sterol isomerase ERG2 (Saccharomyces cerevisiae S288c) (UniProt P32352); assay: Inhibition of yeast sterol-delta8/7-isomerase assessed as accumulation of cholesta-8-en-3beta-ol at 50 uM
[11] = molecular target: C-8 sterol isomerase ERG2 (Saccharomyces cerevisiae S288c) (UniProt P32352); assay: Inhibition of yeast sterol-delta8/7-isomerase assessed as accumulation of cholesta-5,7-dien-3beta-ol at 50 uM

Sigma non-opioid intracellular receptor 1, sequence (Q60492 whole entry): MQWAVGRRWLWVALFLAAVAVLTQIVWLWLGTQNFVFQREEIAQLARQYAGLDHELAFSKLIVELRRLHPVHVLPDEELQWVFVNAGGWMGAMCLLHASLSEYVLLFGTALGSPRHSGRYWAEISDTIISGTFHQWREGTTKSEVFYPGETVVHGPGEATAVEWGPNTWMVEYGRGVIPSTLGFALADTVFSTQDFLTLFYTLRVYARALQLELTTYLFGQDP
C-8 sterol isomerase ERG2 (Saccharomyces cerevisiae S288c), sequence (P32352 whole entry, looked up): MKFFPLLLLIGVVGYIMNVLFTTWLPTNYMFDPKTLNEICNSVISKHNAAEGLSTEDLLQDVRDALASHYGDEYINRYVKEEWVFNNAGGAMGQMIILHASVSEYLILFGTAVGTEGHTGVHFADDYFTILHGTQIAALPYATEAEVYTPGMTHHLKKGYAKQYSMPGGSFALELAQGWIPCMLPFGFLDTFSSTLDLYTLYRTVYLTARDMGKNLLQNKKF

CCCCN1CCCN(C)[C@H](Cc2ccccc2)C1
Ki [1]: 1000 nM | IC50 [2]: > 1000 nM | Ki [3]: 113 nM

C[C@@H]1CN(CCCCc2ccccc2)CCCN1Cc1ccccc1
Ki [1]: 71 nM | inhibition [4]: inactive | inhibition [5]: Active | inhibition [6]: Active | inhibition [7]: Active | inhibition [8]: Active | IC50 [2]: > 1000 nM | Ki [3]: 0.83 nM | inhibition [9]: inactive | inhibition [10]: inactive | inhibition [11]: Active

C[C@@H]1CN(CC2CCCCC2)CCCN1Cc1ccccc1
Ki [1]: 7 nM | inhibition [4]: inactive | inhibition [5]: Active | inhibition [6]: Active | inhibition [7]: Active | inhibition [8]: inactive | IC50 [2]: > 1000 nM | Ki [3]: 0.38 nM | inhibition [9]: inactive | inhibition [10]: inactive | inhibition [11]: Active

CC(C)[C@H]1CN(CC2CCCCC2)CCCN1Cc1ccccc1
Ki [1]: > 1000 nM | inhibition [4]: inactive | inhibition [5]: Active | inhibition [6]: Active | inhibition [7]: Active | inhibition [8]: inactive | IC50 [2]: > 1000 nM | Ki [3]: 6 nM | inhibition [9]: Active | inhibition [10]: Active | inhibition [11]: Active

C[C@H]1CN(CCCCc2ccccc2)CCCN1Cc1ccccc1
Ki [1]: 8.6 nM | inhibition [5]: Active | inhibition [7]: Active | inhibition [8]: Active | IC50 [2]: > 1000 nM | Ki [3]: 0.77 nM | inhibition [9]: inactive

COc1ccc(CN2CCCN(CC3CCCCC3)C[C@@H]2C)cc1
Ki [1]: 19 nM | IC50 [2]: > 1000 nM | Ki [3]: 1.1 nM

COc1ccc(CN2CCCN(Cc3ccccc3)[C@H](C)C2)cc1
Ki [1]: 431 nM | IC50 [2]: > 1000 nM | Ki [3]: 0.51 nM

OCC(c1ccccc1)N1CCCN(Cc2ccccc2)[C@@H](Cc2ccccc2)C1 (stereo not given in full)
Ki [1]: > 1000 nM | IC50 [2]: > 1000 nM | Ki [3]: 228 nM

CCCCN1CCN(CCc2ccc(Cl)c(Cl)c2)CC1
Ki [3]: 0.55 nM

CCCCN1CCCN(C)[C@@H](Cc2ccccc2)C1
Ki [1]: > 1000 nM | IC50 [2]: > 1000 nM | Ki [3]: 120 nM

c1ccc(CCCN2CCCN(Cc3ccccc3)[C@@H](Cc3ccccc3)C2)cc1
Ki [1]: 193 nM | inhibition [5]: Active | inhibition [7]: Active | inhibition [8]: Active | IC50 [2]: > 1000 nM | Ki [3]: 73 nM | inhibition [9]: Active

CCCCN1CCCN(CCCC)[C@H](Cc2ccccc2)C1
Ki [1]: > 1000 nM | IC50 [2]: > 1000 nM | Ki [3]: 21 nM

c1ccc(CCCCN2CCCN(Cc3ccccc3)[C@@H](Cc3ccccc3)C2)cc1
Ki [1]: 372 nM | inhibition [5]: Active | inhibition [7]: Active | inhibition [8]: inactive | IC50 [2]: > 1000 nM | Ki [3]: 38 nM | inhibition [9]: Active

CCCCN1CCCN(CCCCc2ccccc2)[C@H](Cc2ccccc2)C1
Ki [1]: 942 nM | IC50 [2]: > 1000 nM | Ki [3]: 13 nM

CCCCN1CCCN(CCCC)[C@@H](Cc2ccccc2)C1
Ki [1]: 278 nM | IC50 [2]: > 1000 nM | Ki [3]: 18 nM

C[C@H]1CN(CC2CCCCC2)CCCN1Cc1ccc(Cl)cc1
Ki [1]: 51 nM | IC50 [2]: > 1000 nM | Ki [3]: 4.9 nM

CCCCN1CCCN(CCCCc2ccccc2)[C@@H](Cc2ccccc2)C1
Ki [1]: > 1000 nM | IC50 [2]: > 1000 nM | Ki [3]: 6.2 nM

c1ccc(CCN2CCCN(Cc3ccccc3)[C@H](Cc3ccccc3)C2)cc1
Ki [1]: > 1000 nM | inhibition [5]: Active | inhibition [7]: Active | inhibition [8]: Active | IC50 [2]: > 1000 nM | Ki [3]: 52 nM | inhibition [9]: Active

OC(CN1CCCN(Cc2ccccc2)[C@@H](Cc2ccccc2)C1)c1ccccc1 (stereo not given in full)
Ki [1]: 903 nM | IC50 [2]: > 1000 nM | Ki [3]: 234 nM
